From PubChem BioAssay AID2060617 (Molecular Pharmacology Branch, DTP, NCI, 2025)

System: 485368-065-R4-J2-PDC spheroids with HUVEC/MSC, viability
Experiment: Anticancer human tumor 485368-065-R4-J2-PDC patient-derived pancreatic carcinoma cell line growth inhibition [CLK]
Conditions: for IC50: curve of first compound; for viability, T/C: stronger effect = lower value
Summary of the method: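 Multi-cell-type spheroids combined patient-derived tumor cells with HUVEC endothelial cells and human mesenchymal stem cells. Paired agents were dosed in half-log steps down from about clinical Cmax, or from 10 microM where Cmax was unknown.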

[1] = second compound 0.0316 µM, first compound 0.0316 µM
[2] = second compound 0.0316 µM, first compound 0.1 µM
[3] = second compound 0.0316 µM, first compound 0.316 µM
[4] = second compound 0.0316 µM, first compound 1 µM
[5] = second compound 0.0316 µM, first compound 3.16 µM
[6] = second compound 0.0316 µM, first compound 10 µM
[7] = second compound 0.1 µM, first compound 0.0316 µM
[8] = second compound 0.1 µM, first compound 0.1 µM
[9] = second compound 0.1 µM, first compound 0.316 µM
[10] = second compound 0.1 µM, first compound 1 µM
[11] = second compound 0.1 µM, first compound 3.16 µM
[12] = second compound 0.1 µM, first compound 10 µM
[13] = second compound 0.316 µM, first compound 0.0316 µM
[14] = second compound 0.316 µM, first compound 0.1 µM
[15] = second compound 0.316 µM, first compound 0.316 µM
[16] = second compound 0.316 µM, first compound 1 µM
[17] = second compound 0.316 µM, first compound 3.16 µM
[18] = second compound 0.316 µM, first compound 10 µM
[19] = second compound 1 µM, first compound 0.0316 µM
[20] = second compound 1 µM, first compound 0.1 µM
[21] = second compound 1 µM, first compound 0.316 µM
[22] = second compound 1 µM, first compound 1 µM
[23] = second compound 1 µM, first compound 3.16 µM
[24] = second compound 1 µM, first compound 10 µM
[25] = second compound 3.16 µM, first compound 0.0316 µM
[26] = second compound 3.16 µM, first compound 0.1 µM
[27] = second compound 3.16 µM, first compound 0.316 µM
[28] = second compound 3.16 µM, first compound 1 µM
[29] = second compound 3.16 µM, first compound 3.16 µM
[30] = second compound 3.16 µM, first compound 10 µM
[31] = second compound 10 µM, first compound 0.0316 µM
[32] = second compound 10 µM, first compound 0.1 µM
[33] = second compound 10 µM, first compound 0.316 µM
[34] = second compound 10 µM, first compound 1 µM
[35] = second compound 10 µM, first compound 3.16 µM
[36] = second compound 10 µM, first compound 10 µM
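Note: spheroids exposed to compounds for seven days.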
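Throughout, for viability, T/C: 100% = DMSO vehicle control wells.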

## C#Cc1c(F)ccc2cc(O)cc(-c3ncc4c(N5CC6CCC(C5)N6)nc(OCC56CCCN5CC(F)C6)nc4c3F)c12 (centres undefined) + CNC(=O)c1ccc(Nc2nc(OC3CCCC3)c3c(-c4ccc5nc(C)oc5c4)c[nH]c3n2)c(OC)c1
Second compound 0.0316 µM
  IC50: > 10 µM
Second compound 0.1 µM
  IC50: > 10 µM
Second compound 0.316 µM
  IC50: > 10 µM
Second compound 1 µM
  IC50: > 10 µM
Second compound 3.16 µM
  IC50: 6.95 µM
Second compound 10 µM
  IC50: 5.79 µM
[1]
  viability, T/C: 103%
[2]
  viability, T/C: 115%
[3]
  viability, T/C: 90.3%
[4]
  viability, T/C: 102%
[5]
  viability, T/C: 104%
[6]
  viability, T/C: 108%
[7]
  viability, T/C: 96.1%
[8]
  viability, T/C: 99.8%
[9]
  viability, T/C: 108%
[10]
  viability, T/C: 98.4%
[11]
  viability, T/C: 103%
[12]
  viability, T/C: 108%
[13]
  viability, T/C: 91.4%
[14]
  viability, T/C: 86.5%
[15]
  viability, T/C: 96.7%
[16]
  viability, T/C: 87%
[17]
  viability, T/C: 75.8%
[18]
  viability, T/C: 70.3%
[19]
  viability, T/C: 82.8%
[20]
  viability, T/C: 79.4%
[21]
  viability, T/C: 80.3%
[22]
  viability, T/C: 71.5%
[23]
  viability, T/C: 68.8%
[24]
  viability, T/C: 52.3%
[25]
  viability, T/C: 77.5%
[26]
  viability, T/C: 72.5%
[27]
  viability, T/C: 77.1%
[28]
  viability, T/C: 73.2%
[29]
  viability, T/C: 59.4%
[30]
  viability, T/C: 45%
[31]
  viability, T/C: 74.7%
[32]
  viability, T/C: 73.1%
[33]
  viability, T/C: 68.5%
[34]
  viability, T/C: 67.7%
[35]
  viability, T/C: 57%
[36]
  viability, T/C: 43.1%

## C=C(F)C(=O)N1CCN(c2nc(OCC3CCCN3C)nc3c2CCN(c2cccc4cccc(Cl)c24)C3)CC1CC#N (centres undefined) + CNC(=O)c1ccc(Nc2nc(OC3CCCC3)c3c(-c4ccc5nc(C)oc5c4)c[nH]c3n2)c(OC)c1
Second compound 0.0316 µM
  IC50: > 10 µM
Second compound 0.1 µM
  IC50: > 10 µM
Second compound 0.316 µM
  IC50: > 10 µM
Second compound 1 µM
  IC50: > 10 µM
Second compound 3.16 µM
  IC50: > 10 µM
Second compound 10 µM
  IC50: 7.59 µM
[1]
  viability, T/C: 83.5%
[2]
  viability, T/C: 105%
[3]
  viability, T/C: 85.8%
[4]
  viability, T/C: 101%
[5]
  viability, T/C: 115%
[6]
  viability, T/C: 99%
[7]
  viability, T/C: 98.2%
[8]
  viability, T/C: 95.4%
[9]
  viability, T/C: 107%
[10]
  viability, T/C: 112%
[11]
  viability, T/C: 111%
[12]
  viability, T/C: 108%
[13]
  viability, T/C: 79.8%
[14]
  viability, T/C: 80.9%
[15]
  viability, T/C: 89.1%
[16]
  viability, T/C: 92.9%
[17]
  viability, T/C: 82.7%
[18]
  viability, T/C: 93.5%
[19]
  viability, T/C: 81.9%
[20]
  viability, T/C: 79.7%
[21]
  viability, T/C: 77.6%
[22]
  viability, T/C: 78.5%
[23]
  viability, T/C: 94.5%
[24]
  viability, T/C: 107%
[25]
  viability, T/C: 74.4%
[26]
  viability, T/C: 70.2%
[27]
  viability, T/C: 76.1%
[28]
  viability, T/C: 78.1%
[29]
  viability, T/C: 80.9%
[30]
  viability, T/C: 90.4%
[31]
  viability, T/C: 71.6%
[32]
  viability, T/C: 76.4%
[33]
  viability, T/C: 76.1%
[34]
  viability, T/C: 80%
[35]
  viability, T/C: 71.3%
[36]
  viability, T/C: 43%
